Assay results: patent US20250230193A1, “CYCLIC COMPOUND HAVING SELECTIVE KRAS INHIBITORY EFFECT ON HRAS AND NRAS” (CHUGAI SEIYAKU KABUSHIKI KAISHA, priority 2022, published 2025)

Legend:
[1] = target: GDP-bound NRAS wild-type protein (Homo sapiens, UniProt P01111); experiment: Binding to NRAS by surface plasmon resonance (SPR), Single Cycle Kinetics; settings: SPR, GDP-bound NRAS wild-type vs GDP-bound KRAS wild-type
[2] = target: GDP-bound HRAS wild-type protein (Homo sapiens, UniProt P01112); experiment: Binding to HRAS by surface plasmon resonance (SPR), Single Cycle Kinetics; settings: SPR, GDP-bound HRAS wild-type vs GDP-bound KRAS wild-type
Chain of GDP-bound HRAS wild-type protein (P01112 whole entry): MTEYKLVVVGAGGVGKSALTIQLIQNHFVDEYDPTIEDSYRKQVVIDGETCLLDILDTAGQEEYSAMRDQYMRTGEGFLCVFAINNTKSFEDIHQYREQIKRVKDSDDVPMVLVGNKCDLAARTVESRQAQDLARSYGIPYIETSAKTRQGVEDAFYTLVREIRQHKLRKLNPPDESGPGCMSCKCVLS

Chain of GDP-bound NRAS wild-type protein (P01111 whole entry): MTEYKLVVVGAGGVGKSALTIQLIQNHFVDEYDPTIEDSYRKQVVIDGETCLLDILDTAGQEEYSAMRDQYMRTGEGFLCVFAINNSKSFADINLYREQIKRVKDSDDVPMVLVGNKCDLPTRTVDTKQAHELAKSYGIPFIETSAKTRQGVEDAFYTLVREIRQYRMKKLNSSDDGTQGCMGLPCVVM

SMILES | NRAS/KRAS (ratio of KD value with respect to NRAS to KD value with respect to KRAS) [1] | HRAS/KRAS (ratio of KD value with respect to HRAS to KD value with respect to KRAS) [2]
CCC[C@H]1C(=O)N[C@@H]([C@@H](C)CC)C(=O)N(C2CC2)CC(=O)N(C)[C@H]2C/C=C\CCN(C2=O)[C@@H](Cc2ccc(C)cc2)C(=O)N(C)CC(=O)N[C@@H](CCc2cc(F)c(C(F)(F)F)c(F)c2)C(=O)N2C[C@H](OCC)C[C@H]2C(=O)NC2(CC(C)(C)C2)C(=O)N(C)[C@@H](C2CCCC2)C(=O)N(C)[C@H](C(=O)N(C)C)CC(=O)N1C [PP2093, (2S,8S,12R,14S,20S,23S,27S,30S,36S,38Z)-20-cyclopentyl-32-cyclopropyl-8-[2-[3,5-difluoro-4-(trifluoromethyl)phenyl]ethyl]-12-ethoxy-N,N,3′,3′,4,19,22,26,35-nonamethyl-30-[(1S)-1-methylpropyl]-3,6,9,15,18,21,25,28,31,34,42-undecaoxo-27-propyl-2-(p-tolylmethyl)spiro[1,4,7,10,16,19,22,26,29,32,35-undecazatricyclo[34.5.1.0^10,14]dotetracont-38-ene-17,1′-cyclobutane]-23-carboxamide] | A (a compound having 10 or more and less than 20 is denoted as A) | A (a compound having 10 or more and less than 20 is denoted as A)
C=CCN1CC(=O)N(C)[C@H]2C/C=C\CCN(C2=O)[C@@H](Cc2ccc(C)cc2)C(=O)N(C)CC(=O)N[C@@H](CCc2cc(F)c(C(F)(F)F)c(F)c2)C(=O)N2C[C@H](OCC)C[C@H]2C(=O)NC2(CC(C)(C)C2)C(=O)N(C)[C@@H](C2CCCC2)C(=O)N(C)[C@H](C(=O)N(C)C)CC(=O)N(C)[C@@H](CCC)C(=O)N[C@@H]([C@@H](C)CC)C1=O [PP2094] | A (a compound having 10 or more and less than 20 is denoted as A) | A (a compound having 10 or more and less than 20 is denoted as A)
C#CCN1CC(=O)N(C)[C@H]2C/C=C\CCN(C2=O)[C@@H](Cc2ccc(C)cc2)C(=O)N(C)CC(=O)N[C@@H](CCc2cc(F)c(C(F)(F)F)c(F)c2)C(=O)N2C[C@H](OCC)C[C@H]2C(=O)NC2(CC(C)(C)C2)C(=O)N(C)[C@@H](C2CCCC2)C(=O)N(C)[C@H](C(=O)N(C)C)CC(=O)N(C)[C@@H](CCC)C(=O)N[C@@H]([C@@H](C)CC)C1=O [PP2095] | A (a compound having 10 or more and less than 20 is denoted as A) | A (a compound having 10 or more and less than 20 is denoted as A)
CCCN1CC(=O)N(C)[C@H]2C/C=C\CCN(C2=O)[C@@H](Cc2ccc(C)cc2)C(=O)N(C)CC(=O)N[C@@H](CCc2ccc(C(F)(F)F)c(OC)c2)C(=O)N2C[C@H](OCC)C[C@H]2C(=O)NC2(CC(C)(C)C2)C(=O)N(C)[C@@H](C2CCCC2)C(=O)N(C)[C@H](C(=O)N(C)C)CC(=O)N(C)[C@@H](CC)C(=O)N[C@@H]([C@@H](C)CC)C1=O [PP2096] | A (a compound having 10 or more and less than 20 is denoted as A) | A (a compound having 10 or more and less than 20 is denoted as A)
CCC[C@H]1C(=O)N[C@@H]([C@@H](C)CC)C(=O)N(C2CC2)CC(=O)N(C)[C@H]2C/C=C\CCN(C2=O)[C@@H](Cc2ccc(C)cc2)C(=O)N(C)CC(=O)N[C@@H](CCc2ccc(C(F)(F)F)c(OC)c2)C(=O)N2C[C@H](OCC)C[C@H]2C(=O)NC2(CC(C)(C)C2)C(=O)N(C)[C@@H](C2CCCC2)C(=O)N(C)[C@H](C(=O)N(C)C)CC(=O)N1C [PP2097] | A (a compound having 10 or more and less than 20 is denoted as A) | A (a compound having 10 or more and less than 20 is denoted as A)
C=CCN1CC(=O)N(C)[C@H]2C/C=C\CCN(C2=O)[C@@H](Cc2ccc(C)cc2)C(=O)N(C)CC(=O)N[C@@H](CCc2ccc(C(F)(F)F)c(OC)c2)C(=O)N2C[C@H](OCC)C[C@H]2C(=O)NC2(CC(C)(C)C2)C(=O)N(C)[C@@H](C2CCCC2)C(=O)N(C)[C@H](C(=O)N(C)C)CC(=O)N(C)[C@@H](CCC)C(=O)N[C@@H]([C@@H](C)CC)C1=O [PP2098] | A (a compound having 10 or more and less than 20 is denoted as A) | A (a compound having 10 or more and less than 20 is denoted as A)
C#CCN1CC(=O)N(C)[C@H]2C/C=C\CCN(C2=O)[C@@H](Cc2ccc(C)cc2)C(=O)N(C)CC(=O)N[C@@H](CCc2ccc(C(F)(F)F)c(OC)c2)C(=O)N2C[C@H](OCC)C[C@H]2C(=O)NC2(CC(C)(C)C2)C(=O)N(C)[C@@H](C2CCCC2)C(=O)N(C)[C@H](C(=O)N(C)C)CC(=O)N(C)[C@@H](CCC)C(=O)N[C@@H]([C@@H](C)CC)C1=O [PP2099] | A (a compound having 10 or more and less than 20 is denoted as A) | A (a compound having 10 or more and less than 20 is denoted as A)
CCC[C@H]1C(=O)N[C@@H]([C@@H](C)CC)C(=O)N(C2CC2)CC(=O)N(C)[C@H]2C/C=C\CCN(C2=O)[C@@H](Cc2ccc(C(F)(F)F)cc2)C(=O)N(C)CC(=O)N[C@@H](CCc2cc(F)c(C(F)(F)F)c(F)c2)C(=O)N2C[C@H](OCC)C[C@H]2C(=O)NC2(CC(C)(C)C2)C(=O)N(C)[C@@H](C2CCCC2)C(=O)N(C)[C@H](C(=O)N(C)C)CC(=O)N1C [PP2101] | A (a compound having 10 or more and less than 20 is denoted as A) | B (a compound having 3 or more and less than 10 is denoted as B)
C=CCN1CC(=O)N(C)[C@H]2C/C=C\CCN(C2=O)[C@@H](Cc2ccc(C(F)(F)F)cc2)C(=O)N(C)CC(=O)N[C@@H](CCc2cc(F)c(C(F)(F)F)c(F)c2)C(=O)N2C[C@H](OCC)C[C@H]2C(=O)NC2(CC(C)(C)C2)C(=O)N(C)[C@@H](C2CCCC2)C(=O)N(C)[C@H](C(=O)N(C)C)CC(=O)N(C)[C@@H](CCC)C(=O)N[C@@H]([C@@H](C)CC)C1=O [PP2102] | A (a compound having 10 or more and less than 20 is denoted as A) | A (a compound having 10 or more and less than 20 is denoted as A)
C#CCN1CC(=O)N(C)[C@H]2C/C=C\CCN(C2=O)[C@@H](Cc2ccc(C(F)(F)F)cc2)C(=O)N(C)CC(=O)N[C@@H](CCc2cc(F)c(C(F)(F)F)c(F)c2)C(=O)N2C[C@H](OCC)C[C@H]2C(=O)NC2(CC(C)(C)C2)C(=O)N(C)[C@@H](C2CCCC2)C(=O)N(C)[C@H](C(=O)N(C)C)CC(=O)N(C)[C@@H](CCC)C(=O)N[C@@H]([C@@H](C)CC)C1=O [PP2103] | A (a compound having 10 or more and less than 20 is denoted as A) | A (a compound having 10 or more and less than 20 is denoted as A)
CCC[C@H]1C(=O)N[C@@H]([C@@H](C)CC)C(=O)N(C2CC2)CC(=O)N(C)[C@H]2C/C=C\CCN(C2=O)[C@@H](Cc2ccc(C(F)(F)F)cc2)C(=O)N(C)CC(=O)N[C@@H](CCc2ccc(C(F)(F)F)c(OC)c2)C(=O)N2C[C@H](OCC)C[C@H]2C(=O)NC2(CC(C)(C)C2)C(=O)N(C)[C@@H](C2CCCC2)C(=O)N(C)[C@H](C(=O)N(C)C)CC(=O)N1C [PP2105] | A (a compound having 10 or more and less than 20 is denoted as A) | A (a compound having 10 or more and less than 20 is denoted as A)
C=CCN1CC(=O)N(C)[C@H]2C/C=C\CCN(C2=O)[C@@H](Cc2ccc(C(F)(F)F)cc2)C(=O)N(C)CC(=O)N[C@@H](CCc2ccc(C(F)(F)F)c(OC)c2)C(=O)N2C[C@H](OCC)C[C@H]2C(=O)NC2(CC(C)(C)C2)C(=O)N(C)[C@@H](C2CCCC2)C(=O)N(C)[C@H](C(=O)N(C)C)CC(=O)N(C)[C@@H](CCC)C(=O)N[C@@H]([C@@H](C)CC)C1=O [PP2106] | A (a compound having 10 or more and less than 20 is denoted as A) | A (a compound having 10 or more and less than 20 is denoted as A)
C#CCN1CC(=O)N(C)[C@H]2C/C=C\CCN(C2=O)[C@@H](Cc2ccc(C(F)(F)F)cc2)C(=O)N(C)CC(=O)N[C@@H](CCc2ccc(C(F)(F)F)c(OC)c2)C(=O)N2C[C@H](OCC)C[C@H]2C(=O)NC2(CC(C)(C)C2)C(=O)N(C)[C@@H](C2CCCC2)C(=O)N(C)[C@H](C(=O)N(C)C)CC(=O)N(C)[C@@H](CCC)C(=O)N[C@@H]([C@@H](C)CC)C1=O [PP2107] | A (a compound having 10 or more and less than 20 is denoted as A) | A (a compound having 10 or more and less than 20 is denoted as A)
CCC[C@H]1C(=O)N[C@@H]([C@@H](C)CC)C(=O)N(CCC)CC(=O)N(C)[C@H]2C/C=C\CCN(C2=O)[C@@H](Cc2ccc(C)cc2)C(=O)N(C)CC(=O)N[C@@H](CCc2cc(F)c(C(F)(F)F)c(F)c2)C(=O)N2C[C@H](OCC)C[C@H]2C(=O)NC2(CC(C)(C)C2)C(=O)N(C)[C@@H](C2CCCC2)C(=O)N(C)[C@H](C(=O)N(C)C)CC(=O)N1C [PP2108] | A (a compound having 10 or more and less than 20 is denoted as A) | A (a compound having 10 or more and less than 20 is denoted as A)
